The numbers were not newly measured in patent US9783526B2, “Control of hypoxia-inducible gene expression with oligooxopiperazine nonpeptidic helix mimetics” (New York University, priority 2012, dated 2017), which cites them from elsewhere.

Data set [1] deals with HIF-1α C-TAD and p300/CBP.
Another data set has as its system experimental animals. The note with it: in vivo.

On to `CN1C(=O)[C@]2(Cc3cn([C@]45C[C@@]67SS[C@@](CO)(C(=O)N6[C@H]4Nc4ccccc45)N(C)C7=O)c4ccccc34)SS[C@@]1(CO)C(=O)N2C` [chetomin], for which the “inhibition of the interaction between HIF-1α C-TAD and p300/CBP” value in data set [1] is reported as “inhibit the interaction”. Further, the “adverse effects in experimental animals” value in the data set on experimental animals was “induced coagulative necrosis, anemia, and leukocytosis”. As for `CN1C(=O)[C@@]23C[C@]4([C@]56C[C@@]78SS[C@@](CO)(C(=O)N7[C@H]5Nc5ccccc56)N(C)C8=O)c5ccccc5N[C@@H]4N2C(=O)[C@]1(CO)SS3` [chaetocin], in the data set on experimental animals, the “adverse effects in experimental animals” value was “induced coagulative necrosis, anemia, and leukocytosis”.
